Data on ten molecules can be found in PubChem BioAssay (NCI).

Some test systems named below: HCC-2998 colon; HL-60(TB) leukemia; K-562 leukemia; MDA-MB-435; NCI/ADR-RES ovarian; OVCAR-3 ovarian; OVCAR-4 ovarian; RXF 393 renal; SF-295 CNS; SF-539 CNS; SK-MEL-5 melanoma; SNB-75 CNS; U251 CNS.
Holding throughout (assay): NCI tumour cell line growth inhibition, 48 h

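Values below derive from 48-hour exposures of cells grown in 96-well plates, with endpoints linearly interpolated between the two concentrations bracketing the appropriate inhibition level. TGI is the concentration that stops growth completely.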 Bounds are passed on as bounds.

With `C=CCC1(O)c2cccc(O)c2C(=O)c2cccc(O)c21` (stereo not given), the TGI in the test with HCC-2998 colon was 30.3 µM; in the test on HL-60(TB) leukemia it was 34.2 µM; in the test with K-562 leukemia it was above 100 µM; in the test on MDA-MB-435, 50.8 µM; in the test with NCI/ADR-RES ovarian it was 40.2 µM; in the test with OVCAR-3 ovarian, 59.7 µM. Besides, the TGI in the test on OVCAR-4 ovarian is above 100 µM; in the test on RXF 393 renal it was 37 µM; in the test on SF-295 CNS, 38.3 µM; in the test with SF-539 CNS it was above 100 µM; in the test with SK-MEL-5 melanoma, 26.4 µM; in the test with SNB-75 CNS it was 52 µM. Also, in the test with U251 CNS, the TGI turned out to be 45.5 µM.

In the case of `C#CCSc1cnc2ccccc2c1Sc1c[nH]c2ccccc2c1=O`, the TGI was 38.2 µM in the test with HCC-2998 colon; 88.9 µM in the test on HL-60(TB) leukemia; above 100 µM with K-562 leukemia; above 100 µM in the test on MDA-MB-435; above 100 µM in the test with NCI/ADR-RES ovarian; above 100 µM in the test with OVCAR-3 ovarian. The TGI is above 100 µM in the test on OVCAR-4 ovarian; 36.1 µM with RXF 393 renal; above 100 µM in the test with SF-295 CNS; above 100 µM in the test on SF-539 CNS; 44.8 µM in the test on SK-MEL-5 melanoma; 83.3 µM in the test on SNB-75 CNS. This molecule also returned a TGI in the test with U251 CNS of 50 µM.

As to `Cc1ccc(N2C(=O)CC(=O)N(NC(=O)C(C)Oc3ccccc3C)C2=S)cc1` (stereo not given), the TGI in the test with HCC-2998 colon, in the test with HL-60(TB) leukemia, with K-562 leukemia, with MDA-MB-435, with NCI/ADR-RES ovarian and with OVCAR-3 ovarian was above 100 µM in each case. Moreover, the TGI with OVCAR-4 ovarian, in the test on RXF 393 renal, in the test on SF-295 CNS, in the test with SF-539 CNS, in the test with SK-MEL-5 melanoma and in the test with SNB-75 CNS was above 100 µM each time. The molecule further came in with a TGI in the test with U251 CNS above 100 µM.

Take `CC1(C)OC2CN(C(=O)OCc3ccccc3)C(CO)C2O1` (stereo not given): the TGI in the test on HCC-2998 colon, in the test on HL-60(TB) leukemia, with K-562 leukemia, in the test on MDA-MB-435, in the test with NCI/ADR-RES ovarian and in the test on OVCAR-3 ovarian was above 100 µM throughout. In addition, the TGI with OVCAR-4 ovarian, in the test with RXF 393 renal, with SF-295 CNS, with SF-539 CNS, with SK-MEL-5 melanoma and with SNB-75 CNS was above 100 µM each time. This molecule showed a TGI with U251 CNS above 100 µM.

Take `CSCCCNC(=O)c1csc([C@@H](CSC)NC(=O)CCNC(=O)[C@@H](NC(=O)OCC(Br)(Br)Br)C(C)O)n1` (stereo not given in full): the TGI in the test with HCC-2998 colon, in the test with HL-60(TB) leukemia, in the test on K-562 leukemia, in the test with MDA-MB-435, in the test with NCI/ADR-RES ovarian and in the test with OVCAR-3 ovarian was above 100 µM in each case. In addition, the TGI in the test on OVCAR-4 ovarian, with RXF 393 renal, in the test with SF-295 CNS, in the test on SF-539 CNS, in the test on SK-MEL-5 melanoma and with SNB-75 CNS was above 100 µM throughout. In addition, the TGI with U251 CNS is above 100 µM.

`CCOC(=O)C1(Cc2ccccc2)CCN(C(=O)c2ccccc2)C2C1C2(Cl)Cl` (stereo not given): the TGI is 30.5 µM in the test on HCC-2998 colon; 32.6 µM with HL-60(TB) leukemia; above 100 µM in the test on K-562 leukemia; 48.3 µM with MDA-MB-435; 69 µM in the test with NCI/ADR-RES ovarian; 47.1 µM with OVCAR-3 ovarian. In addition, the TGI was above 100 µM in the test on OVCAR-4 ovarian; 36.5 µM with RXF 393 renal; 77.2 µM in the test with SF-295 CNS; 38.5 µM with SF-539 CNS; 29.5 µM in the test on SK-MEL-5 melanoma; 62.6 µM with SNB-75 CNS. The molecule further yielded a TGI with U251 CNS of 32.6 µM.

Consider `Cc1cc2c(cc1Cl)Sc1nnc(C)n1S2(=O)=O`, for which the TGI in the test on HCC-2998 colon came to 33.9 µM; with HL-60(TB) leukemia, 24.4 µM; with K-562 leukemia it was 35.4 µM; in the test on MDA-MB-435, 26.6 µM; in the test with NCI/ADR-RES ovarian, 69.8 µM; with OVCAR-3 ovarian it was 29.6 µM. For the same molecule, the TGI in the test with OVCAR-4 ovarian worked out at 27.2 µM; in the test on RXF 393 renal, 47.4 µM; with SF-295 CNS, 33.8 µM; in the test on SF-539 CNS, 36.4 µM; in the test on SK-MEL-5 melanoma it was 27 µM; in the test on SNB-75 CNS it was 47.5 µM. For the same molecule, the TGI with U251 CNS was found to be 42.8 µM.

As to `O=S(=O)(O)Nc1ccc(-c2nc3ccccc3s2)cc1Cl`, the TGI with HCC-2998 colon, in the test on HL-60(TB) leukemia, with K-562 leukemia, in the test with MDA-MB-435, with NCI/ADR-RES ovarian and with OVCAR-3 ovarian was above 100 µM each time. For the same molecule, the TGI with OVCAR-4 ovarian, in the test on RXF 393 renal, in the test with SF-295 CNS, in the test on SF-539 CNS, in the test with SK-MEL-5 melanoma and in the test on SNB-75 CNS was above 100 µM each time. In the test on U251 CNS, this molecule yielded a TGI above 100 µM.

With `CSc1nc(-c2cc3c(c(SC)n2)CCC3)cc2c1CCC2`, the TGI in the test with HCC-2998 colon, with HL-60(TB) leukemia, in the test on K-562 leukemia, with MDA-MB-435, in the test with NCI/ADR-RES ovarian and in the test on OVCAR-3 ovarian was above 100 µM in each case. Further, the TGI in the test with OVCAR-4 ovarian, with RXF 393 renal, in the test on SF-295 CNS, with SF-539 CNS, in the test with SK-MEL-5 melanoma and with SNB-75 CNS was above 100 µM each time. Further, the TGI in the test on U251 CNS is above 100 µM.

Regarding `O=C(O)c1cc2c(cc1S(=O)(=O)O)C1C(C3C2C2(Cl)C(Cl)=C(Cl)C3(Cl)C2(Cl)Cl)C2(Cl)C(Cl)=C(Cl)C1(Cl)C2(Cl)Cl` (stereo not given), the TGI with HCC-2998 colon is 51.2 µM; in the test with HL-60(TB) leukemia, 79.9 µM; in the test with K-562 leukemia it was above 100 µM; in the test with MDA-MB-435, above 100 µM; in the test on NCI/ADR-RES ovarian it was above 100 µM; in the test on OVCAR-3 ovarian, above 100 µM. In addition, the TGI in the test with OVCAR-4 ovarian was above 100 µM; in the test on RXF 393 renal it was above 100 µM; with SF-295 CNS it was 60.2 µM; in the test on SF-539 CNS, 60.3 µM; with SK-MEL-5 melanoma it was above 100 µM; in the test on SNB-75 CNS, above 100 µM. The TGI in the test with U251 CNS was above 100 µM.
